# Data reported in patent US20080242667A1, “Pyrimidinyl-Pyrazole Inhibitors of Aurora Kinases” (SMITHKLINE BEECHAM CORPORATION, priority 2005, published 2008).
row,melting point [°C],Compound
1,185 to 186,"O=C(Nc1ccc(-c2nn(CCO)cc2-c2ccnc(Nc3cccc(F)c3)n2)cc1)N1CCCC1 [Example 54, N-{4-[4-{2-[(3-fluorophenyl)amino]-4-pyrimidinyl}-1-(2-hydroxyethyl)-1H-pyrazol-3-yl]phenyl}-1-pyrrolidinecarboxamide]"
2,143 to 145,"Cn1cc(-c2ccnc(Nc3cccc(CCN4CCOCC4)c3)n2)c(-c2ccc(NC(=O)NC3CC3)cc2)n1 [Example 55, N-cyclopropyl-N′-(4-{1-methyl-4-[2-({3-[2-(4-morpholinyl)ethyl]phenyl}amino)-4-pyrimidinyl]-1H-pyrazol-3-yl}phenyl)urea]"
3,228 to 230,"Cn1ncc(-c2ccnc(Nc3cccc(CCN4CCOCC4)c3)n2)c1-c1ccc(NC(=O)N2CCCC2)cc1 [Example 56, N-(4-{1-methyl-4-[2-({3-[2-(4-morpholinyl)ethyl]phenyl}amino)-4-pyrimidinyl]-1H-pyrazol-5-yl}phenyl)-1-pyrrolidinecarboxamide]"
4,139 to 141,"CCNC(=O)Nc1ccc(-c2nn(C)cc2-c2ccnc(Nc3cccc(CCN4CCOCC4)c3)n2)cc1 [Example 61, N-ethyl-N′-(4-{1-methyl-4-[2-({3-[2-(4-morpholinyl)ethyl]phenyl}amino)-4-pyrimidinyl]-1H-pyrazol-3-yl}phenyl)urea]"
5,132 to 134,"CN(C)C(=O)Nc1ccc(-c2nn(C)cc2-c2ccnc(Nc3cccc(CCN4CCOCC4)c3)n2)cc1 [Example 65, N,N-dimethyl-N′-(4-{1-methyl-4-[2-({3-[2-(4-morpholinyl)ethyl]phenyl}amino)-4-pyrimidinyl]-1H-pyrazol-3-yl}phenyl)urea]"
6,167 to 168,"O=C(Nc1ccc(-c2nn(CCN3CCOCC3)cc2-c2ccnc(Nc3cccc(F)c3)n2)cc1)N1CCCC1 [Example 84, N-(4-{4-[2-{(3-fluorophenyl)amino]-4-pyrimidinyl}-1-[2-(4-morpholinyl)ethyl]-1H-pyrazol-3-yl}phenyl)-1-pyrrolidinecarboxamide]"
